Experimental data published in US7091040B1, “P450/acetaminophen genetically directed enzyme prodrug therapy (GDEPT)” (Innovata PLC, priority 1999, dated 2006).

Key:
[1] = Viability of H1A2 MZ cells (stably transfected with human CYP1A2) incubated with acetaminophen, trypan blue exclusion; conditions: Chinese hamster
Description: (§1) For cell viability experiments 200,000 cells per well were plated on 12 well plates (Beckton-Dickenson, Oxford, UK), using the medium and conditions required by the tumour cell line and allowed to adhere overnight. After this the cells were washed with PBS before the addition of acetaminophen in 0.1 ml PBS (concentrations of 0.1–20 mM acetaminophen were dissolved in PBS by sonication) and then maintained at 37° C. At the appropriate time points, cells were removed from the plates by trypsinisation and collected by centrifugation. Cell viability was measured as ability to exclude trypan blue. Cells were counted at ×100 magnification using an Improved Neubauer haemocytometer; all cell counts are the mean of duplicate determinations of five fields from duplicate experiments.
(§2) V79 MZ Chinese hamster cells were maintained in Dulbecco-Vogt's modified Eagle's Medium (DMEM) supplemented with 10% foetal calf serum 9FCS), 2 mM L-glutamine, penicillin (100 U/ml and streptomycin (100 μg/ml) (all tissue culture reagents were obtained from Gibco BRL, Paisley, UK). H1A2 MZ cells, which are V79 MZ cells transfected with the human CYP1A2 gene, were also maintained in supplemented DMEM with the addition of geneticin at a concentration of 4 mg/ml. SK-OV-3 cells were grown in DMEM supplemented with 15% FCS and 2 mM L-glutamine, without the addition of antibiotics. RPMI-1640 medium with 10% FCS, 2 mM L-glutamine, penicillin (100 U/ml) and streptomycin ([…]) was required by the HCT116 cells. These cell lines were maintained at 37° C. with 100% humidity and 5% CO2. […] At confluence cells were removed from tissue culture flasks by inubation with trypsin-EDTA for 5 min, diluted 1:3–1:6 in fresh medium and seeded onto fresh flasks. The tumour cell lines were obtained from the European Collection of Cell Cultures.

H1A2 MZ cells = test: as above; conditions: H1A2 MZ cells; 0.1 mM acetaminophen; 6 h
Description: as §1, §2

[2] = Bystander effect on viability of MDA-MB-361 cells co-cultured with H1A2 MZ cells in the presence of acetaminophen, trypan blue exclusion; assay type: cell-based, human; conditions: human; for viability at 4 mM: 4 mM acetaminophen 6 h; for viability at 0 h, 4 mM / viability at 6 h, 4 mM: 4 mM acetaminophen in PBS
Description: (§3) Tumour cells or V79 MZ cells (non transfected, parental cells) were co-cultured overnight with various mixtures of H1A2 MZ cells (as indicated in the Table), washed with PBS and incubated with 4 mM acetaminophen in PBS for 6 h at 37° C. the cells were then washed once with PBS and maintained for either 24 or 48 h in culture medium appropriate to each cell type, as detailed in the Methods section. At 0, 6, 24 or 48 h the cells were washed in PBS and viability of the mixed cell population determined by trypan blue exclusion. The data shown are mean values±SEM of 4 separate determinations. Statistical significance was determined at each time point by comparing viability measurements in the mixed cell populations with both the viability determined at 0 h and in the absence of H1A2 MZ cells in the mixture 2×2 contingency tables using the 2-tailed Chi-squared test with Yate's correction. Viability was determined in a total of 1500 cells at each time point. Levels of significance are indicated as **p<0.001; ***p<0.0001;
as §1, §2

MDA-MB-361 cells = test: as above; assay type: cell-based, human; conditions: for viability at 4000 µM: Homo sapiens
Description: as §3, §1, §2

COS cells = test: Viability of COS cells transiently transfected with mouse CYP1A2 versus non-transfected COS cells, tritiated thymidine incorporation; assay type: cell-based
Description: FIG. 1 is a graphical representation of an acetaminophen titration showing the sensitivity of COS cells transiently transfected with a vector incorporating mouse CYP1A2 and non-transfected control COS cells. Cell viability is monitored by tritiated thymidine incorporation;
FIG. 2 is a cell viability time course of COS cells transiently transfected with mouse CYP1A2 and non-transfected control COS cells over a 24 hr period.
Acetaminophen concentration is 10 mM. Cell viability is monitored by tritiated thymidine incorporation;
COS cells are plated at 1.5×10^5 per well in 6 well tissue culture dishes the evening before transfection. […] All tissue culture reagents can be obtained from Gibco BRL, Paisley, UK.
To the LPA/DNA complex, 200 μl of serum free medium is added to each LPA/DNA sample which is then gently added to the cells over a period of 3–4 seconds. Cells are returned to a 37° C. CO2 incubator for 6 hours. […]
Transfected COS cells are either exposed to various concentrations of acetaminophen or incubated in the presence of 10 mM acetaminophen and cell viability monitored with time. ^3H-thymidine (Amersham International UK, 100 Ci/mmol, 5 μCi per assay), is added to treated and control cultures and aliquots removed and acid precipitable counts assessed by liquid scintillation using a Beckton Liquid Scintillation Counter.

[3] = MDA-MB-361 cells + 10% H1A2 MZ cells
[4] = MDA-MB-361 cells + 25% H1A2 MZ cells
[5] = MDA-MB-361 cells + 50% H1A2 MZ cells

## CC(=O)Nc1ccc(O)cc1 [acetaminophen]
[1]
  viability at 6 h, 1 mM: 62%
  viability at 6 h, 4 mM: 8%
H1A2 MZ cells
  cytotoxicity: No cytotoxicity
[2]; MDA-MB-361 cells + 5% H1A2 MZ cells, then 24 h in culture medium
  viability at 4 mM: 84 ± 7%
[2]; MDA-MB-361 cells + 5% H1A2 MZ cells, then 48 h in culture medium
  viability at 4 mM: 92 ± 4%
[2]; MDA-MB-361 cells + 10% H1A2 MZ cells, then 24 h in culture medium
  viability at 4 mM: 81 ± 9%
[2]; MDA-MB-361 cells + 10% H1A2 MZ cells, then 48 h in culture medium
  viability at 4 mM: 94 ± 7%
[2]; [3]
  viability at 0 h, 4 mM: 96 ± 3%
  viability at 6 h, 4 mM: 74 ± 7%
[2]; MDA-MB-361 cells + 25% H1A2 MZ cells, then 24 h in culture medium
  viability at 4 mM: 78 ± 9%
[2]; MDA-MB-361 cells + 25% H1A2 MZ cells, then 48 h in culture medium
  viability at 4 mM: 91 ± 6%
[2]; [4]
  viability at 0 h, 4 mM: 97 ± 1%
  viability at 6 h, 4 mM: 70 ± 11%
[2]; MDA-MB-361 cells + 50% H1A2 MZ cells, then 48 h in culture medium
  viability at 4 mM: 0%
[2]; [5]
  viability at 0 h, 4 mM: 98 ± 3%
  viability at 6 h, 4 mM: 42 ± 4%
MDA-MB-361 cells; MDA-MB-361, 0 h, MDA-MB-361 cells + 5% H1A2 MZ cells, 4 mM acetaminophen in PBS, 0 h
  viability at 4000 µM: 98 ± 2%
MDA-MB-361 cells; MDA-MB-361, 0 h, MDA-MB-361 cells, 0% H1A2 MZ cells, 4 mM acetaminophen in PBS, 0 h
  viability at 4000 µM: 96 ± 1%
MDA-MB-361 cells; MDA-MB-361, 6 h, MDA-MB-361 cells + 5% H1A2 MZ cells, 4 mM acetaminophen in PBS, 6 h
  viability at 4000 µM: 85 ± 2%
MDA-MB-361 cells; MDA-MB-361, 6 h, MDA-MB-361 cells, 0% H1A2 MZ cells, 4 mM acetaminophen in PBS, 6 h
  viability at 4000 µM: 98 ± 4%
MDA-MB-361 cells; MDA-MB-361, MDA-MB-361 cells + 50% H1A2 MZ cells, 4 mM acetaminophen 6 h, then 24 h in culture medium
  viability at 4000 µM: 18%
MDA-MB-361 cells; MDA-MB-361, MDA-MB-361 cells, 0% H1A2 MZ cells, 4 mM acetaminophen 6 h, then 24 h in culture medium
  viability at 4000 µM: 95 ± 3%
MDA-MB-361 cells; MDA-MB-361, MDA-MB-361 cells, 0% H1A2 MZ cells, 4 mM acetaminophen 6 h, then 48 h in culture medium
  viability at 4000 µM: 97 ± 1%
MDA-MB-361 cells; MDA-MB-361 cells + 50% H1A2 MZ cells, 4 mM acetaminophen 6 h, then 48 h in culture medium
  Viability (%): no viable cells
MDA-MB-361 cells; MDA-MB-361 cells mixed with H1A2 MZ cells, 4 mM acetaminophen, 6 h
  susceptibility to cytotoxicity produced by the activation of acetaminophen: highly resistant to cytotoxicity
COS cells; 10 mM acetaminophen, transfected COS cells versus non-transfected control cells over 24 hrs
  extent of acetaminophen sensitivity over time (tritiated thymidine incorporation): increases markedly during the first 4–8 hrs
COS cells; acetaminophen titration, COS cells transfected with CYP1A2 (48 hrs expression) versus non-transfected control COS cells
  sensitivity to acetaminophen (tritiated thymidine incorporation): significant increase in sensitivity
